According to patent US12077503B2, “Substituted cyclic amides and their use as herbicides” (FMC CORPORATION, priority 2015, dated 2024):

Assays:
Type in all cases: in vivo
[1] = test system: barnyardgrass (Echinochloa crus-galli); test: Test G Pre-Emergence Protocol; details: Echinochloa crus-galli, pre-emergence, 312 h, evaluated after 13 days; for pest or weed control at 15.625 g/ha: 15.625 g ai/ha; for pest or weed control at 15.625 g/ha / pest or weed control at 250 g/ha: read-out: Barnyardgrass damage rating (100=total damage to plant; 0=no damage to plant); for pest or weed control at 62.5 g/ha: 62.5 g ai/ha, 100=total damage to plant, 0=no damage to plant, read-out: Barnyardgrass damage rating; for pest or weed control at 250 g/ha: 250 g ai/ha
Summary of the method: (§1)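 One day after sowing, pots are treated with a spray of test compound formulated in acetone/water 50:50 plus 0.5% Tween 20, giving 15.625, 62.5 or 250 g/ha. Evaluation on a 0–100 damage scale follows 13 days of glasshouse growth.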

[2] = test system: corn (Zea mays); test: Test G Pre-Emergence Protocol; details: Zea mays, pre-emergence, 312 h, evaluated after 13 days; for plant injury at 15.625 g/ha: 15.625 g ai/ha; for plant injury at 15.625 g/ha / plant injury at 250 g/ha: read-out: Corn damage rating (100=total damage to plant; 0=no damage to plant); for plant injury at 62.5 g/ha: 62.5 g ai/ha, 100=total damage to plant, 0=no damage to plant, read-out: Corn damage rating; for plant injury at 250 g/ha: 250 g ai/ha
Summary of the method: as §1

[3] = test system: giant foxtail (Setaria faberi); test: Test G Pre-Emergence Protocol; details: Setaria faberi, pre-emergence, 312 h, evaluated after 13 days; for pest or weed control at 15.625 g/ha: 15.625 g ai/ha; for pest or weed control at 15.625 g/ha / pest or weed control at 250 g/ha: read-out: Foxtail, Giant damage rating (100=total damage to plant; 0=no damage to plant); for pest or weed control at 62.5 g/ha: 62.5 g ai/ha, 100=total damage to plant, 0=no damage to plant, read-out: Foxtail, Giant damage rating; for pest or weed control at 250 g/ha: 250 g ai/ha
Summary of the method: as §1

[4] = test system: ivy-leaved morning glory (Ipomoea hederacea); test: Test G Pre-Emergence Protocol; details: Ipomoea, pre-emergence, 312 h, evaluated after 13 days; for pest or weed control at 15.625 g/ha: 15.625 g ai/ha; for pest or weed control at 15.625 g/ha / pest or weed control at 250 g/ha: read-out: Morningglory, Ivy-leaved damage rating (100=total damage to plant; 0=no damage to plant); for pest or weed control at 62.5 g/ha: 62.5 g ai/ha, 100=total damage to plant, 0=no damage to plant, read-out: Morningglory, Ivy-leaved damage rating; for pest or weed control at 250 g/ha: 250 g ai/ha
Summary of the method: as §1

[5] = test system: redroot pigweed (Amaranthus retroflexus); test: Test G Pre-Emergence Protocol; details: Amaranthus retroflexus, pre-emergence, 312 h, evaluated after 13 days; for pest or weed control at 15.625 g/ha: 15.625 g ai/ha; for pest or weed control at 15.625 g/ha / pest or weed control at 250 g/ha: read-out: Pigweed, Redroot damage rating (100=total damage to plant; 0=no damage to plant); for pest or weed control at 62.5 g/ha: 62.5 g ai/ha, 100=total damage to plant, 0=no damage to plant, read-out: Pigweed, Redroot damage rating; for pest or weed control at 250 g/ha: 250 g ai/ha
Summary of the method: as §1

[6] = test system: velvetleaf (Abutilon theophrasti); test: Test G Pre-Emergence Protocol; details: Abutilon theophrasti, pre-emergence, 312 h, evaluated after 13 days; for pest or weed control at 15.625 g/ha: 15.625 g ai/ha; for pest or weed control at 15.625 g/ha / pest or weed control at 250 g/ha: read-out: Velvetleaf damage rating (100=total damage to plant; 0=no damage to plant); for pest or weed control at 62.5 g/ha: 62.5 g ai/ha, 100=total damage to plant, 0=no damage to plant, read-out: Velvetleaf damage rating; for pest or weed control at 250 g/ha: 250 g ai/ha
Summary of the method: as §1

[7] = test system: barnyardgrass (Echinochloa crus-galli); test: Test G Post-Emergence Protocol; details: Echinochloa crus-galli, post-emergence, 312 h, read-out: Barnyardgrass damage rating; for pest or weed control at 15.625 g/ha: 15.625 g ai/ha, evaluated after 13 days (100=total damage to plant; 0=no damage to plant); for pest or weed control at 62.5 g/ha: 62.5 g ai/ha; for pest or weed control at 62.5 g/ha / pest or weed control at 250 g/ha: evaluated after 13 days, 100=total damage to plant, 0=no damage to plant; for pest or weed control at 250 g/ha: 250 g ai/ha
Summary of the method: (§2)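 Scores run 0 (no damage) to 100 (total damage) and were taken 13 days after spraying. Plants had been raised in pots for 8 days under glasshouse control (24/16 °C, 14 h photoperiod, 65% humidity) and then treated at 15.625, 62.5 or 250 g/ha.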

[8] = test system: corn (Zea mays); test: Test G Post-Emergence Protocol; details: Zea mays, post-emergence, 312 h, read-out: Corn damage rating; for plant injury at 15.625 g/ha: 15.625 g ai/ha, evaluated after 13 days (100=total damage to plant; 0=no damage to plant); for plant injury at 62.5 g/ha: 62.5 g ai/ha; for plant injury at 62.5 g/ha / plant injury at 250 g/ha: evaluated after 13 days, 100=total damage to plant, 0=no damage to plant; for plant injury at 250 g/ha: 250 g ai/ha
Summary of the method: as §2

[9] = test system: giant foxtail (Setaria faberi); test: Test G Post-Emergence Protocol; details: Setaria faberi, post-emergence, 312 h, read-out: Foxtail, Giant damage rating; for pest or weed control at 15.625 g/ha: 15.625 g ai/ha, evaluated after 13 days (100=total damage to plant; 0=no damage to plant); for pest or weed control at 62.5 g/ha: 62.5 g ai/ha; for pest or weed control at 62.5 g/ha / pest or weed control at 250 g/ha: evaluated after 13 days, 100=total damage to plant, 0=no damage to plant; for pest or weed control at 250 g/ha: 250 g ai/ha
Summary of the method: as §2

[10] = test system: ivy-leaved morning glory (Ipomoea hederacea); test: Test G Post-Emergence Protocol; details: Ipomoea, post-emergence, 312 h, read-out: Morningglory, Ivy-leaved damage rating; for pest or weed control at 15.625 g/ha: 15.625 g ai/ha, evaluated after 13 days (100=total damage to plant; 0=no damage to plant); for pest or weed control at 62.5 g/ha: 62.5 g ai/ha; for pest or weed control at 62.5 g/ha / pest or weed control at 250 g/ha: evaluated after 13 days, 100=total damage to plant, 0=no damage to plant; for pest or weed control at 250 g/ha: 250 g ai/ha
Summary of the method: as §2

[11] = test system: redroot pigweed (Amaranthus retroflexus); test: Test G Post-Emergence Protocol; details: Amaranthus retroflexus, post-emergence, 312 h, read-out: Pigweed, Redroot damage rating; for pest or weed control at 15.625 g/ha: 15.625 g ai/ha, evaluated after 13 days (100=total damage to plant; 0=no damage to plant); for pest or weed control at 62.5 g/ha: 62.5 g ai/ha; for pest or weed control at 62.5 g/ha / pest or weed control at 250 g/ha: evaluated after 13 days, 100=total damage to plant, 0=no damage to plant; for pest or weed control at 250 g/ha: 250 g ai/ha
Summary of the method: as §2

[12] = test system: velvetleaf (Abutilon theophrasti); test: Test G Post-Emergence Protocol; details: Abutilon theophrasti, post-emergence, 312 h, read-out: Velvetleaf damage rating; for pest or weed control at 15.625 g/ha: 15.625 g ai/ha, evaluated after 13 days (100=total damage to plant; 0=no damage to plant); for pest or weed control at 62.5 g/ha: 62.5 g ai/ha; for pest or weed control at 62.5 g/ha / pest or weed control at 250 g/ha: evaluated after 13 days, 100=total damage to plant, 0=no damage to plant; for pest or weed control at 250 g/ha: 250 g ai/ha
Summary of the method: as §2

| SMILES | pest or weed control at 15.625 g/ha [1] [%] | pest or weed control at 62.5 g/ha [1] [%] | pest or weed control at 250 g/ha [1] [%] | plant injury at 15.625 g/ha [2] [%] | plant injury at 62.5 g/ha [2] [%] | plant injury at 250 g/ha [2] [%] | pest or weed control at 15.625 g/ha [3] [%] | pest or weed control at 62.5 g/ha [3] [%] | pest or weed control at 250 g/ha [3] [%] | pest or weed control at 15.625 g/ha [4] [%] | pest or weed control at 250 g/ha [4] [%] | pest or weed control at 15.625 g/ha [5] [%] | pest or weed control at 62.5 g/ha [5] [%] | pest or weed control at 250 g/ha [5] [%] | pest or weed control at 15.625 g/ha [6] [%] | pest or weed control at 62.5 g/ha [6] [%] | pest or weed control at 250 g/ha [6] [%] | pest or weed control at 15.625 g/ha [7] [%] | pest or weed control at 62.5 g/ha [7] [%] | pest or weed control at 250 g/ha [7] [%] | also measured |
| --- | --- | --- | --- | --- | --- | --- | --- | --- | --- | --- | --- | --- | --- | --- | --- | --- | --- | --- | --- | --- | --- |
| CN1C[C@H](c2ccc(C(F)(F)F)cc2)[C@@H](C(=O)Nc2ccc(C(F)(F)F)cn2)C1=O (racemic) [Compound 1672] | 0 | 0 | 0 | 0 | 0 | 0 | 0 | 0 | 0 | 0 | 0 | 0 | 0 | 0 | 0 | 0 | 0 | 0 | 0 | 0 | pest or weed control at 62.5 g/ha [4]: 0%; plant injury at 15.625 g/ha [8]: 0%; plant injury at 62.5 g/ha [8]: 0%; plant injury at 250 g/ha [8]: 10%; pest or weed control at 15.625 g/ha [9]: 0%; pest or weed control at 62.5 g/ha [9]: 0%; pest or weed control at 250 g/ha [9]: 0%; pest or weed control at 15.625 g/ha [10]: 0%; pest or weed control at 62.5 g/ha [10]: 0%; pest or weed control at 250 g/ha [10]: 0%; pest or weed control at 15.625 g/ha [11]: 0%; pest or weed control at 62.5 g/ha [11]: 30%; pest or weed control at 250 g/ha [11]: 40%; pest or weed control at 15.625 g/ha [12]: 0%; pest or weed control at 62.5 g/ha [12]: 0%; pest or weed control at 250 g/ha [12]: 0% |
| CN1C[C@@H](c2ccc(C(F)(F)F)cc2)[C@H](C(=O)Nc2ccc(F)nn2)C1=O (racemic) [Compound 1655] | 0 | 0 | 0 | 0 | 0 | 0 | 0 | 0 | 30 | 0 | 0 | 0 | 0 | 0 | 0 | 0 | 0 | 0 | 20 | 20 | pest or weed control at 62.5 g/ha [4]: 0%; plant injury at 15.625 g/ha [8]: 0%; plant injury at 62.5 g/ha [8]: 0%; plant injury at 250 g/ha [8]: 0%; pest or weed control at 15.625 g/ha [9]: 0%; pest or weed control at 62.5 g/ha [9]: 30%; pest or weed control at 250 g/ha [9]: 30%; pest or weed control at 15.625 g/ha [10]: 0%; pest or weed control at 62.5 g/ha [10]: 0%; pest or weed control at 250 g/ha [10]: 0%; pest or weed control at 15.625 g/ha [11]: 0%; pest or weed control at 62.5 g/ha [11]: 0%; pest or weed control at 250 g/ha [11]: 40%; pest or weed control at 15.625 g/ha [12]: 0%; pest or weed control at 62.5 g/ha [12]: 0%; pest or weed control at 250 g/ha [12]: 0% |
| CON1C[C@H](c2ccc(F)c(F)c2)[C@@H](C(=O)Nc2ccc(F)c(F)c2F)C1=O [Compound 1679] | 50 | 80 | 90 | 0 | 0 | 60 | 90 | 90 | 90 | 0 | 10 | 10 | 10 | 30 | 10 | 10 | 60 | 40 | 80 | 90 | plant injury at 15.625 g/ha [8]: 0%; plant injury at 62.5 g/ha [8]: 0%; plant injury at 250 g/ha [8]: 60%; pest or weed control at 15.625 g/ha [9]: 80%; pest or weed control at 62.5 g/ha [9]: 80%; pest or weed control at 250 g/ha [9]: 80%; pest or weed control at 15.625 g/ha [10]: 0%; pest or weed control at 62.5 g/ha [10]: 50%; pest or weed control at 250 g/ha [10]: 40%; pest or weed control at 15.625 g/ha [11]: 0%; pest or weed control at 62.5 g/ha [11]: 30%; pest or weed control at 250 g/ha [11]: 50%; pest or weed control at 15.625 g/ha [12]: 0%; pest or weed control at 62.5 g/ha [12]: 20%; pest or weed control at 250 g/ha [12]: 40% |
